Target: T1, human histamine H3 receptor (Homo sapiens, UniProt Q9Y5N1)
T1 construct: host or cells: cells expressing the human H3 receptor
Assay: H3 GTPγS assay (SPA method), histamine H3 in vitro assay
Format: biochemical
Settings: GTPγ[35S] binding to membranes of cells expressing human H3; antagonist mode with R-γ-Me-Histamine at EC80 (30 nM); in one embodiment HCl salts tested; read-out: Potency (functional potency as indicated by IC50)

T1 sequence (Q9Y5N1 whole entry): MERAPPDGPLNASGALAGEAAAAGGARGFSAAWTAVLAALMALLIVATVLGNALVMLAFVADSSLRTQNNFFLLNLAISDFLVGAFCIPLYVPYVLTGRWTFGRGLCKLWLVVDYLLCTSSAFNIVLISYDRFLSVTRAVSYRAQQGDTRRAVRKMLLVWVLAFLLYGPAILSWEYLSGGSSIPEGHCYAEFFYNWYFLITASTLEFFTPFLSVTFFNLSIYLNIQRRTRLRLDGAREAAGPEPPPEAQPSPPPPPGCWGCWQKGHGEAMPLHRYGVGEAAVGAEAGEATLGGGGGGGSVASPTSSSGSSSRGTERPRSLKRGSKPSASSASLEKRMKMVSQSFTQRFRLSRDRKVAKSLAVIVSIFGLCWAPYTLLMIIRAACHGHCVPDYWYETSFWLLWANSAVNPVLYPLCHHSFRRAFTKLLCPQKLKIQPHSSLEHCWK

Compound	IC50 [nM]
N#Cc1ccc(-c2ccc3c(c2)nc2n3CCN(CC3CC3)CC2)cc1 [Compound 39]	≤ 100
N#Cc1ccc(-c2ccc3c(c2)nc2n3CCN(C3CCC3)CC2)cn1 [Compound 27, 5-(3-cyclobutyl-2,3,4,5-tetrahydro-1H-[1,4]diazepino[1,7-a]benzimidazol-9-yl)-picolinonitrile]	≤ 10
CN(C)C(=O)c1ccc2c(c1)nc1n2CCN(C2CCC2)CC1 [Compound 57]	≤ 1000
CN1CCN(c2cncc(-c3ccc4c(c3)nc3n4CCN(C4CCC4)CC3)n2)CC1 [Compound 95, 3-cyclobutyl-9-(6-(4-methylpiperazin-1-yl)pyrazin-2-yl)-2,3,4,5-tetrahydro-1H-[1,4]diazepino[1,7-a]benzimidazole]	≤ 10

Second part, the compound after the results:

IC50 [nM]	Compound
≤ 10	c1cc2c(cc1N1CCC(N3CCOCC3)CC1)nc1n2CCN(C2CCC2)CC1 [Compound 225, 4-(1-(3-cyclobutyl-2,3,4,5-tetrahydro-1H-benzo[4,5]imidazo[1,2-d][1,4]diazepin-8-yl)piperidin-4-yl)morpholine]
≤ 100	O=C(C1CCC1)N1CCc2cc3nc4n(c3cc2C1)CCN(C1CCC1)CC4 [Compound 191, cyclobutyl(9-cyclobutyl-3,4,8,9,10,11-hexahydro-1H-[1,4]diazepino[1′,7′:1,2]imidazo[4,5-g]isoquinolin-2 (7H)-yl)methanone]
≤ 100	c1cc2c(cc1-n1cnnn1)nc1n2CCN(C2CCC2)CC1 [Compound 154, 3-cyclobutyl-8-(1H-tetrazol-1-yl)-2,3,4,5-tetrahydro-1H-benzo[4,5]imidazo[1,2-d][1,4]diazepine]
